The text below walks through data of patent US20060142312A1, “C6-aryl and heteroaryl substituted pyrido[2,3-D] pyrimidin-7-ones” (PFIZER INC, priority 2004, published 2006).

In the case of `Cc1ccc(Cc2cc3cnc(Nc4ccc(N5CCOC5=O)cc4)nc3n(C3CCCC3)c2=O)cc1` [Example 103, 8-Cyclopentyl-6-(4-methyl-benzyl)-2-[4-(2-oxo-oxazolidin-3-yl)-phenylamino]-8H-pyrido[2,3-d]pyrimidin-7-one], the melting point (in general, the temperature of the solid-liquid transition) lay in the range of 289.2 to 290 °C.
As to `O=c1c(Cc2ccccc2)cc2cnc(NCCc3cnc[nH]3)nc2n1C1CCCC1` [Example 51, 6-Benzyl-8-cyclopentyl-2-[2-(3H-imidazol-4-yl)-ethylamino]-8H-pyrido[2,3-d]pyrimidin-7-one], the melting point was 163 to 165 °C.
Molecule `O=c1c(Cc2ccccc2)cc2cnc(NCCCn3ccnc3)nc2n1C1CCCC1` [Example 50, 6-Benzyl-8-cyclopentyl-2-(3-imidazol-1-yl-propylamino)-8H-pyrido[2,3-d]pyrimidin-7-one] gave a melting point of 142 to 144 °C.
The figure for `CC(C)c1ccc(Cc2cc3cnc(Nc4ccc(N5CCNCC5)cc4)nc3n(C3CCCC3)c2=O)cc1` [Example 72, 8-Cyclopentyl-6-(4-isopropyl-benzyl)-2-(4-piperazin-1-yl-phenylamino)-8H-pyrido[2,3-d]pyrimidin-7-one] is 140 to 145 °C; for `Cc1c(C(O)c2ccccc2)c(=O)n(C2CCCC2)c2nc(Nc3ccc(N4CCNCC4)cc3)ncc12` (stereo not shown) [Example 31, 8-Cyclopentyl-6-(hydroxy-phenyl-methyl)-5-methyl-2-(4-piperazin-1-yl-phenylamino)-8H-pyrido[2,3-d]pyrimidin-7-one] it is 185 °C (dec.); for `Cc1ccc(Cc2cc3cnc(NCCCN4CCN(C)CC4)nc3n(C3CCCC3)c2=O)cc1` [Example 78, 8-Cyclopentyl-6-(4-methyl-benzyl)-2-[3-(4-methyl-piperazin-1-yl)-propylamino]-8H-pyrido[2,3-d]pyrimidin-7-one] it is 123 to 124 °C.
As to `CNc1ncc2cc(Cc3ccccc3)c(=O)n(C3CCCC3)c2n1` [Example 47, 6-Benzyl-8-cyclopentyl-2-methylamino-8H-pyrido[2,3-d]pyrimidin-7-one], the melting point fell in the range of 144 to 146 °C.
The figure for `CCc1ccc(Cc2cc3cnc(Nc4ccc(N5CCNCC5)cc4)nc3n(C3CCCC3)c2=O)cc1` [Example 71, 8-Cyclopentyl-6-(4-ethyl-benzyl)-2-(4-piperazin-1-yl-phenylamino)-8H-pyrido[2,3-d]pyrimidin-7-one] is 175 °C.
The figure for `CN(C)C1CCC(Nc2ncc3cc(Cc4ccccc4)c(=O)n(C4CCCC4)c3n2)CC1` (stereo not shown) [Example 40, 6-Benzyl-8-cyclopentyl-2-(4-dimethylamino-cyclohexylamino)-8H-pyrido[2,3-d]pyrimidin-7-one] is 167 to 170 °C.
With `CCCN1CCC(Nc2ncc3cc(Cc4nccs4)c(=O)n(C4CCCC4)c3n2)CC1` [Example 86, 8-Cyclopentyl-2-(1-propyl-piperidin-4-ylamino)-6-thiazol-2-ylmethyl-8H-pyrido[2,3-d]pyrimidin-7-one], the melting point lay within 149 to 152 °C.
Take `CCCN1CCC(Nc2ncc3cc(Cc4ccc(C)cc4)c(=O)n(C4CCCC4)c3n2)CC1` [Example 59, 8-Cyclopentyl-6-(4-methyl-benzyl)-2-(1-propyl-piperidin-4-ylamino)-8H-pyrido[2,3-d]pyrimidin-7-one]: the melting point lay in the range of 154 to 155 °C.
Molecule `CC(C)S(=O)(=O)N1CCC(Nc2ncc3cc(Cc4ccccc4)c(=O)n(C4CCCC4)c3n2)CC1` [Example 34, 6-Benzyl-8-cyclopentyl-2-[1-(propane-2-sulfonyl)-piperidin-4-ylamino]-8H-pyrido[2,3-d]pyrimidin-7-one] yielded a melting point of 210 to 212 °C.
The molecule `CCCN1CCC(Nc2ncc3cc(Cc4ccccc4C)c(=O)n(C4CCCC4)c3n2)CC1` [Example 60, 8-Cyclopentyl-6-(2-methyl-benzyl)-2-(1-propyl-piperidin-4-ylamino)-8H-pyrido[2,3-d]pyrimidin-7-one] displayed a melting point of 149 to 151 °C.
The figure for `Cc1cccc(Cc2cc3cnc(Nc4ccc(N5CCNCC5)cc4)nc3n(C3CCCC3)c2=O)c1` [Example 70, 8-Cyclopentyl-6-(3-methyl-benzyl)-2-(4-piperazin-1-yl-phenylamino)-8H-pyrido[2,3-d]pyrimidin-7-one] is 200 to 203 °C.
Turning to `CCCN1CCC(Nc2ncc3cc(Cc4ccc(C(C)C)cc4)c(=O)n(C4CCCC4)c3n2)CC1` [Example 63, 8-Cyclopentyl-6-(4-isopropyl-benzyl)-2-(1-propyl-piperidin-4-ylamino)-8H-pyrido[2,3-d]pyrimidin-7-one], the melting point fell in the range of 156 to 160 °C.
As for `Cc1ccccc1Cc1cc2cnc(NCCCN3CCN(C)CC3)nc2n(C2CCCC2)c1=O` [Example 77, 8-Cyclopentyl-6-(2-methyl-benzyl)-2-[3-(4-methyl-piperazin-1-yl)-propylamino]-8H-pyrido[2,3-d]pyrimidin-7-one], the melting point is greater than 45 °C.
`CN1CCN(S(=O)(=O)N2CCC(Nc3ncc4cc(Cc5ccccc5)c(=O)n(C5CCCC5)c4n3)CC2)CC1` [Example 33, 6-Benzyl-8-cyclopentyl-2-[1-(4-methyl-piperazine-1-sulfonyl)-piperidin-4-ylamino]-8H-pyrido[2,3-d]pyrimidin-7-one]: the melting point fell in the range of 182 to 183 °C.
The figure for `Cc1ccccc1Cc1cc2cnc(Nc3ccc(N4CCNCC4)cc3)nc2n(C2CCCC2)c1=O` [Example 69, 8-Cyclopentyl-6-(2-methyl-benzyl)-2-(4-piperazin-1-yl-phenylamino)-8H-pyrido[2,3-d]pyrimidin-7-one] is 210 °C; for `CC(C)S(=O)(=O)N1CCC(Nc2ncc3cc(Cc4ccccn4)c(=O)n(C4CCCC4)c3n2)CC1` [Example 35, 8-Cyclopentyl-2-[1-(propane-2-sulfonyl)-piperidin-4-ylamino]-6-pyridin-2-ylmethyl-8H-pyrido[2,3-d]pyrimidin-7-one] it is 216 to 219 °C; for `Cc1cccc(Cc2cc3cnc(NC4CCC(N(C)C)CC4)nc3n(C3CCCC3)c2=O)c1` (stereo not shown) [Example 65, 8-Cyclopentyl-2-(4-dimethylamino-cyclohexylamino)-6-(3-methyl-benzyl)-8H-pyrido[2,3-d]pyrimidin-7-one] it is 191 to 194 °C.
`O=c1c(Cc2ccccc2)cc2cnc(Nc3ccccc3)nc2n1C1CCCC1` [Example 44, 6-Benzyl-8-cyclopentyl-2-phenylamino-8H-pyrido[2,3-d]pyrimidin-7-one] displayed a melting point of 161 to 163 °C.
Molecule `Cc1ccc(Cc2cc3cnc(NC4CCC(N(C)C)CC4)nc3n(C3CCCC3)c2=O)cc1` (stereo not shown) [Example 66, 8-Cyclopentyl-2-(4-dimethylamino-cyclohexylamino)-6-(4-methyl-benzyl)-8H-pyrido[2,3-d]pyrimidin-7-one] came in with a melting point of 179 to 184 °C.
In turn, `CCCN1CCC(Nc2ncc3cc(Cc4cccc(C)c4)c(=O)n(C4CCCC4)c3n2)CC1` [Example 61, 8-Cyclopentyl-6-(3-methyl-benzyl)-2-(1-propyl-piperidin-4-ylamino)-8H-pyrido[2,3-d]pyrimidin-7-one] showed a melting point of 118 to 120 °C.
Molecule `CS(=O)(=O)N1CCC(Nc2ncc3cc(Cc4ccccc4)c(=O)n(C4CCCC4)c3n2)CC1` [Example 54, 6-Benzyl-8-cyclopentyl-2-(1-methanesulfonyl-piperidin-4-ylamino)-8H-pyrido[2,3-d]pyrimidin-7-one] showed a melting point of 243 to 245 °C.
Molecule `CCCN1CCC(Nc2ncc3cc(Cc4ccccc4)c(=O)n(C4CCCC4)c3n2)CC1` [Example 45, 6-Benzyl-8-cyclopentyl-2-(1-propyl-piperidin-4-ylamino)-8H-pyrido[2,3-d]pyrimidin-7-one] came in with a melting point of 143 to 145 °C.
`Cc1ccccc1Cc1cc2cnc(NC3CCC(N(C)C)CC3)nc2n(C2CCCC2)c1=O` (stereo not shown) [Example 64, 8-Cyclopentyl-2-(4-dimethylamino-cyclohexylamino)-6-(2-methyl-benzyl)-8H-pyrido[2,3-d]pyrimidin-7-one]: the melting point was in the range of 178 to 183 °C.
`CN(C)C1CCC(Nc2ncc3cc(Cc4nccs4)c(=O)n(C4CCCC4)c3n2)CC1` (stereo not shown) [Example 87, 8-Cyclopentyl-2-(4-dimethylamino-cyclohexylamino)-6-thiazol-2-ylmethyl-8H-pyrido[2,3-d]pyrimidin-7-one] registered a melting point of 154 to 157 °C.
Molecule `Cc1ccc(Cc2cc3cnc(NCCCN4CCOCC4)nc3n(C3CCCC3)c2=O)cc1` [Example 76, 8-Cyclopentyl-6-(4-methyl-benzyl)-2-(3-morpholin-4-yl-propylamino)-8H-pyrido[2,3-d]pyrimidin-7-one] gave a melting point of 114 to 116 °C.
Molecule `CS(=O)(=O)N1CCC(Nc2ncc3cc(Cc4ccccn4)c(=O)n(C4CCCC4)c3n2)CC1` [Example 27, 8-Cyclopentyl-2-(1-methanesulfonyl-piperidin-4-ylamino)-6-pyridin-2-ylmethyl-8H-pyrido[2,3-d]pyrimidin-7-one] displayed a melting point of 220 to 223 °C.
As to `CN(C)CCCCNc1ncc2cc(Cc3nccs3)c(=O)n(C3CCCC3)c2n1` [Example 90, 8-Cyclopentyl-2-(4-dimethylamino-butylamino)-6-thiazol-2-ylmethyl-8H-pyrido[2,3-d]pyrimidin-7-one], the melting point fell in the range of 122 to 124 °C.
Then `Cc1ccccc1Cc1cc2cnc(NCCCN3CCOCC3)nc2n(C2CCCC2)c1=O` [Example 74, 8-Cyclopentyl-6-(2-methyl-benzyl)-2-(3-morpholin-4-yl-propylamino)-8H-pyrido[2,3-d]pyrimidin-7-one], with 118 to 119 °C.
The molecule `O=c1c(Cc2ccccc2)cc2cnc(NC3CCCCC3)nc2n1C1CCCC1` [Example 41, 6-Benzyl-2-cyclohexylamino-8-cyclopentyl-8H-pyrido[2,3-d]pyrimidin-7-one] came in with a melting point of 128 to 130 °C.
`Cc1ccccc1Cc1cc2cnc(NCCN3CCOCC3)nc2n(C2CCCC2)c1=O` [Example 73, 8-Cyclopentyl-6-(2-methyl-benzyl)-2-(2-morpholin-4-yl-ethylamino)-8H-pyrido[2,3-d]pyrimidin-7-one] displayed a melting point of 134 to 137 °C.
On to `CN(CCO)c1ncc2cc(Cc3ccccc3)c(=O)n(C3CCCC3)c2n1` [Example 48, 6-Benzyl-8-cyclopentyl-2-[(2-hydroxy-ethyl)-methyl-amino]-8H-pyrido[2,3-d]pyrimidin-7-one], for which the melting point is less than 60 °C.
